# Measurements as given in paper PMC5929572, “Nucleobases and corresponding nucleosides display potent antiviral activities against dengue virus possibly through viral lethal mutagenesis” (PLoS Neglected Tropical Diseases, 2018).
# Read-outs that look alike come from different tables or passages of the source.
# Assays:
# [1] = Cell viability assay (MTS) in DENV replicon cells; type: cell-based, baby hamster; settings: hamster, DENV replicon cells (BHK pD2-hRucPac-2ATG30), DENV replicon BHK cells, MTS, 72 h
# [2] = tested on: DENV replicon cells (BHK pD2-hRucPac-2ATG30); assay: Cell viability assay (MTS) in DENV replicon cells; type: cell-based, baby hamster
# DENV-2 viral replicon = assay: microbe, parasite or virus in culture; type: cell-based; settings: for EC50: Dengue virus
# Experimental: Compounds were evaluated for antiviral properties using BHK cells containing a DENV-2 viral replicon. 1.5 × 10^3 replicon-containing cells per well were plated in white opaque 96-well plates in the absence of antibiotic selection and the next day, compounds dissolved in DMSO were added to triplicate wells in culture medium. The compounds were initially tested at 10 and 50 μM final concentrations and each plate also contained DMSO alone, medium alone, and 6. Three days later, medium was replaced with a 1:1000 dilution of ViVi-Ren Live Cell Substrate (Promega) in DME minus phenol red and 10% FBS. Luminescence was measured with a Molecular Devices M5e plate reader. Mean values of triplicate wells were determined and compared to the mean value for the wells that received DMSO alone. […] The EC50 was determined by comparing luciferase activity for eight serial dilutions of the compound and DMSO treated cells using GraphPad Prism software.
# DENV-2 [3] = assay: Virus passage in presence of compound, supernatant titer by plaque assay; type: cell-based, DENV-2 New Guinea C strain; settings: 3a 200 μM, Huh-7, passages 5 and 6; limit of detection 3.3 pfu/mL
# Experimental: Huh-7 cells were seeded in 12-well plates at a density of 4×10^5 cells per well in 1 mL culture medium. The next day, cells were washed and inoculated with DENV at a multiplicity of infection (m.o.i.) of 0.2 in 500μl infection medium (MEM containing 2% FBS and 10 mM HEPES). The inoculum was removed after 1h, cells were washed with PBS and then incubated in 1 mL MEM, 2% FBS, 1% pen/strep plus compound for 72 h. Viral supernatants were clarified by centrifugation for 5 min at 1500×g and aliquoted and stored at -80°C. Viral titers were determined using a plaque assay on Vero cells. Briefly, confluent Vero cell monolayers in 24-well plates were incubated at 37°C for 1 h with duplicate 300 μl samples of 10-fold serial dilutions of viral supernatants. The cells were then washed to remove unbound viral particles and overlaid with 500ul MEM containing 1.3% methylcellulose, 5% FBS and 10mM HEPES. […] Infectious virus titer (pfu/mL) was determined using the following formula: number of plaques × dilution factor × (1/inoculation volume). […]
# (§1) Virus was passaged on Huh-7 cells supplemented with 200 μM 3a, 500 μM 3b or DMSO (0.5%). […] The virus titer in the harvested supernatant was determined by plating ten-fold serial dilutions onto single wells of a 24-well plate. […] Supernatant titer was determined from a single well where there were approximately 20–50 plaques when possible. […]
# DENV-2 [4] = assay: Virus passage in presence of compound, genome copy number by RT-qPCR (NS5); type: cell-based, DENV-2 New Guinea C strain; settings: 3a 200 μM, Huh-7, passage 6; limit of detection 30 copies
# Experimental: For qPCR determination of viral genome copy number, viral RNA was isolated from 140 μL of drug-treated or DMSO-treated infected culture supernatant using QIAamp Viral RNA mini kit (Qiagen), following manufacturer’s protocol. Viral RNA was quantified using the TaqMan RNA-to-CT 1-Step qPCR Kit (Applied Biosystems). Primers used for qPCR were 5’-[…]-3’ (forward) and 5’-[…]-3’ (reverse) amplifying a region numbering 8928–8988 in the genome (numbering starting from the beginning of genome, accession number KM204118). The qPCR FAM probe sequence is 5’-[…]-3’. Serial 10-fold dilutions of plasmid containing the NS5 gene of DENV were used to generate a standard curve for the quantification of viral RNA genome copy number based on cycle threshold (CT) values. […] Sequences were aligned over a 980-base region that had adequate quality sequencing reads for all clones. Only mutations present in both the forward and reverse reads of a clone were counted. All incidence-based determinants of mutation frequency (Mf min, Mf max, Mfe) were calculated as described.
# as §1
# DENV-2 [5] = assay: Sequence analysis of prM/E region clones from passaged virus (mutation frequency); type: cell-based, DENV-2 New Guinea C strain
# Experimental: For qPCR determination of viral genome copy number, viral RNA was isolated from 140 μL of drug-treated or DMSO-treated infected culture supernatant using QIAamp Viral RNA mini kit (Qiagen), following manufacturer’s protocol. Viral RNA was quantified using the TaqMan RNA-to-CT 1-Step qPCR Kit (Applied Biosystems). Primers used for qPCR were 5’-[…]-3’ (forward) and 5’-[…]-3’ (reverse) amplifying a region numbering 8928–8988 in the genome (numbering starting from the beginning of genome, accession number KM204118). The qPCR FAM probe sequence is 5’-[…]-3’. Serial 10-fold dilutions of plasmid containing the NS5 gene of DENV were used to generate a standard curve for the quantification of viral RNA genome copy number based on cycle threshold (CT) values. The limit of detection for NS5 plasmid dilutions was 30 copies (S1 Fig). […] Statistical analysis via GraphPad Prism 5 software. To obtain sequence data from viral RNA isolated at each passage, cDNA was generated via M-MLV reverse transcriptase and random hexamers (New England Biolab Inc.) per manufacturer’s instructions. An approximately 1600-base fragment covering membrane protein (prM) and envelop protein gene (E) of DENV-2 viral genome was amplified using PfuUltra II Fusion HS DNA polymerase (Agilent) with primers prMEfor (5'- […]-3') and prMErev (5'- […] -3'). PCR products were purified using Qiaquick PCR purification kit (Qiagen) and then digested with EcoRI and ligated into pcDNA3.1 for sequencing. Sequence for approximately 40–50 individual clones per sample was obtained from the University of Minnesota Genomics Center. Sequences were aligned over a 980-base region that had adequate quality sequencing reads for all clones. Only mutations present in both the forward and reverse reads of a clone were counted. All incidence-based determinants of mutation frequency (Mf min, Mf max, Mfe) were calculated as described.
# Virus was passaged on Huh-7 cells supplemented with 200 μM 3a, 500 μM 3b or DMSO (0.5%). Huh-7 cells were seeded in 12-well plates and inoculated with DENV-2 as described for Titer reduction experiments above except an m.o.i. of 0.01 was used. After 3 days of compound treatment, 50 μL of the harvested supernatant was used to inoculate fresh Huh-7 cells in the continued presence of compound. The virus titer in the harvested supernatant was determined by plating ten-fold serial dilutions onto single wells of a 24-well plate. The wells were washed and overlaid as described in the Titer reduction assay above. If no plaques were obtained in any of the harvested supernatant dilutions, the undiluted supernatant was used. If plaques were not detectable, the virus titer was considered to be at the limit of detection, 1 plaque (3.3 pfu/mL). Supernatant titer was determined from a single well where there were approximately 20–50 plaques when possible. This experiment was repeated three times at the compound concentrations listed.
# [6] = Cell viability assay (MTS) in Huh-7 cells; type: cell-based; settings: human
# Experimental: The sensitivity of the cell lines to the compounds was examined using the 3-(4,5-dimethylthiazol-2-yl)-5-(3-carboxymethoxyphenyl)-2-(4-sulfophenyl)-2H-tetrazolium (MTS)-based tetrazolium reduction CellTiter 96 Aqueous Non-Radioactive cell proliferation assay (Promega G5430). The compounds were initially tested at 10 and 50 μM final concentrations. Each plate also contained DMSO alone, medium alone, and an inhibitory compound, 6. DENV replicon or Huh-7 cells were plated at a density of 1,500 or 8 × 10^3 cells, respectively, per well in 96-well plates containing 100 μl of culture medium overnight. Compounds were added to triplicate wells in culture medium and incubated for an additional 72 h. MTS reagent was then added to each well and incubated at 37°C in a humidified 5% CO2 atmosphere. The plates were read at various time points at a wavelength of 490 nm using a Molecular Devices M5e plate reader. Mean values of triplicate wells were determined and compared to the mean value for the wells that received DMSO alone. For compounds selected for dose-response experiments, the CC50 was determined by comparing cell viability for eight serial dilutions of the compound and DMSO treated cells using GraphPad Prism software.
# DENV-2 [7] = assay: Titer reduction assay in Huh-7 cells, plaque assay on Vero cells; type: cell-based, DENV-2 New Guinea C strain; settings: Dengue virus, DENV2, m.o.i. 0.2, 72 h
# Experimental: Huh-7 cells were seeded in 12-well plates at a density of 4×10^5 cells per well in 1 mL culture medium. The next day, cells were washed and inoculated with DENV at a multiplicity of infection (m.o.i.) of 0.2 in 500μl infection medium (MEM containing 2% FBS and 10 mM HEPES). The inoculum was removed after 1h, cells were washed with PBS and then incubated in 1 mL MEM, 2% FBS, 1% pen/strep plus compound for 72 h. Viral supernatants were clarified by centrifugation for 5 min at 1500×g and aliquoted and stored at -80°C. Viral titers were determined using a plaque assay on Vero cells. Briefly, confluent Vero cell monolayers in 24-well plates were incubated at 37°C for 1 h with duplicate 300 μl samples of 10-fold serial dilutions of viral supernatants. The cells were then washed to remove unbound viral particles and overlaid with 500ul MEM containing 1.3% methylcellulose, 5% FBS and 10mM HEPES. After 5 days of incubation at 37°C and 5% CO2, cells were washed with PBS, fixed, and stained using 1% Giemsa. Infectious virus titer (pfu/mL) was determined using the following formula: number of plaques × dilution factor × (1/inoculation volume). The viral titer was presented as the mean of duplicate samples from a dilution yielding approximately 20–50 plaques per well.
# [8] = DENV2, 72 h, DENV replicon BHK cells, luciferase, 3 days, read-out: EC50
# [9] = passage 2, 3a 200 μM, 3b 500 μM, Huh-7
# [10] = passage 3, 3a 200 μM, 3b 500 μM, Huh-7
structure (smiles),measurement,setting,value
"NC(=O)c1nc[nH]n1 [Compound 1a, 1,2,4-Triazole-3-carboxamide]",CC50 at 72 h,[1],> 1000 µM
same,CC50,"[2]; DENV replicon BHK cells, MTS, 72 h",> 665 µM
same,cytotoxicity,"[2]; at 1000 μM, DENV replicon cells",did not show cytotoxicity
same,EC50,"DENV-2 viral replicon; DENV2, BHK, 72 h",4.9 ± 1.6 µM
"NC(=O)c1ncn([C@@H]2O[C@H](CO)[C@@H](O)[C@H]2O)n1 [Compound 1b, ribavirin, reference compound]",CC50 at 72 h,[1],20 µM
"NC(=O)c1nc[nH]c1O [Compound 2a, 5-Hydroxy-1H-imidazole-4-carboxamide]",CC50 at 72 h,[1],23 ± 4.2 µM
same,EC50,DENV-2 viral replicon; [8],2.4 µM
"NC(=O)c1ncn([C@@H]2O[C@H](CO)[C@@H](O)[C@H]2O)c1O [Compound 2b, mizoribine, reference compound]",CC50 at 72 h,[1],33 ± 12 µM
same,EC50,DENV-2 viral replicon; [8],15 µM
"NC(=O)c1nccnc1O [Compound 3a, 3-Hydroxy-2-pyrazinecarboxamide]",CC50 at 72 h,[1],> 665 µM
same,infectious virus in supernatant,DENV-2 [3],no infectious virus was detected
same,genomic RNA in supernatant,DENV-2 [4],no genomic RNA was detected
same,times more active than nucleobase 5a (favipiravir),"DENV-2 viral replicon; DENV replicon cells, EC50 compared",5 times
same,number of mutations per clone compared to DMSO,"DENV-2 [5]; 3a 200 μM passage 4, 3b 500 μM passage 3, p < 0.0001, Mann-Whitney U",significant difference
same,Mf max (maximum mutation frequency),DENV-2 [5]; [9],"24.6 per 10,000 nucleotides"
same,Mf min (minimum mutation frequency),DENV-2 [5]; [9],"5.2 per 10,000 nucleotides"
same,Mfe (entity level mutation frequency),DENV-2 [5]; [9],2.5 ×10^−3
same,Number of clones with mutation/total,DENV-2 [5]; [9],26/36
same,Number of different mutations,DENV-2 [5]; [9],17
same,Number of haplotypes,DENV-2 [5]; [9],17
same,Number of total mutations,DENV-2 [5]; [9],80
same,"Transition A→G, number of mutations",DENV-2 [5]; [9],3
same,"Transition C→U, number of mutations",DENV-2 [5]; [9],4
same,"Transition G→A, number of mutations",DENV-2 [5]; [9],3
same,"Transition U→C, number of mutations",DENV-2 [5]; [9],1
same,"Transversion A→U, number of mutations",DENV-2 [5]; [9],1
same,"Transversion G→U, number of mutations",DENV-2 [5]; [9],2
same,"Transversion U→A, number of mutations",DENV-2 [5]; [9],2
same,"Transversion U→G, number of mutations",DENV-2 [5]; [9],1
same,Mf max (maximum mutation frequency),DENV-2 [5]; [10],"5.7 per 10,000 nucleotides"
same,Mf min (minimum mutation frequency),DENV-2 [5]; [10],"2.7 per 10,000 nucleotides"
same,Mfe (entity level mutation frequency),DENV-2 [5]; [10],1.4 ×10^−3
same,Number of clones with mutation/total,DENV-2 [5]; [10],12/37
same,Number of different mutations,DENV-2 [5]; [10],9
same,Number of haplotypes,DENV-2 [5]; [10],9
same,Number of total mutations,DENV-2 [5]; [10],19
same,"Transition C→U, number of mutations",DENV-2 [5]; [10],3
same,"Transition G→A, number of mutations",DENV-2 [5]; [10],3
same,"Transition U→C, number of mutations",DENV-2 [5]; [10],2
same,"Transversion G→U, number of mutations",DENV-2 [5]; [10],1
same,Mf max (maximum mutation frequency),"DENV-2 [5]; passage 4, 3a 200 μM, Huh-7","6.6 per 10,000 nucleotides"
same,Mf min (minimum mutation frequency),"DENV-2 [5]; passage 4, 3a 200 μM, Huh-7","3.9 per 10,000 nucleotides"
same,Mfe (entity level mutation frequency),"DENV-2 [5]; passage 4, 3a 200 μM, Huh-7",1.6 ×10^−3
same,Number of clones with mutation/total,"DENV-2 [5]; passage 4, 3a 200 μM, Huh-7",19/45
same,Number of different mutations,"DENV-2 [5]; passage 4, 3a 200 μM, Huh-7",16
same,Number of haplotypes,"DENV-2 [5]; passage 4, 3a 200 μM, Huh-7",15
same,Number of total mutations,"DENV-2 [5]; passage 4, 3a 200 μM, Huh-7",27
same,"Transition A→G, number of mutations","DENV-2 [5]; passage 4, 3a 200 μM, Huh-7",2
same,"Transition C→U, number of mutations","DENV-2 [5]; passage 4, 3a 200 μM, Huh-7",3
same,"Transition G→A, number of mutations","DENV-2 [5]; passage 4, 3a 200 μM, Huh-7",3
same,"Transition U→C, number of mutations","DENV-2 [5]; passage 4, 3a 200 μM, Huh-7",4
same,"Transversion C→A, number of mutations","DENV-2 [5]; passage 4, 3a 200 μM, Huh-7",2
same,"Transversion U→A, number of mutations","DENV-2 [5]; passage 4, 3a 200 μM, Huh-7",2
same,CC50 at 72 h,[6],> 1000 µM
same,EC50,DENV-2 [7],20 ± 11 µM
